Experimental data from PMC9927415, “Tyrosine Kinase Inhibitors Display Potent Activity against Cryptosporidium parvum” (Microbiology Spectrum, 2022).

How the values were obtained:
Assay in all cases: KINOMEscan competitive binding, whole panel
panel of 203 kinases [1] = molecular target: T1, panel of 203 kinases (Homo sapiens, UniProt P29376); conditions: 10 µM, n=1; kinase LTK; read-out: Percent inhibition LTK
T1 construct: purchased DiscoverX (KINOMEscan)
Source text: (§1) The kinases were expressed as fusions to T7 bacteriophage. This is a sensitive, competitive binding assay where test compounds were used to displace immobilized ATP-site binding probe ligands from kinases of interest. The amount of kinase that remained bound to the immobilized probe ligands on the solid support was quantified. Percentage inhibition data were was plotted on kinome trees using the web-based tool KinMap (http://www.kinhub.org/kinmap) ([60]).

panel of 203 kinases [2] = molecular target: T2, panel of 203 kinases (Homo sapiens, UniProt P31749); conditions: 10 µM, n=1; kinase AKT1; read-out: Percent inhibition AKT1
T2 construct: purchased DiscoverX (KINOMEscan)
Source text: as §1

panel of 203 kinases [3] = molecular target: T3, panel of 203 kinases (Homo sapiens, UniProt Q14012); conditions: 10 µM, n=1; kinase CAMK1; read-out: Percent inhibition CAMK1
T3 construct: purchased DiscoverX (KINOMEscan)
Source text: as §1

panel of 203 kinases [4] = molecular target: T4, panel of 203 kinases (Homo sapiens, UniProt O14976); conditions: 10 µM, n=1; kinase GAK; read-out: Percent inhibition GAK
T4 construct: purchased DiscoverX (KINOMEscan)
T4 sequence (O14976 1-1311): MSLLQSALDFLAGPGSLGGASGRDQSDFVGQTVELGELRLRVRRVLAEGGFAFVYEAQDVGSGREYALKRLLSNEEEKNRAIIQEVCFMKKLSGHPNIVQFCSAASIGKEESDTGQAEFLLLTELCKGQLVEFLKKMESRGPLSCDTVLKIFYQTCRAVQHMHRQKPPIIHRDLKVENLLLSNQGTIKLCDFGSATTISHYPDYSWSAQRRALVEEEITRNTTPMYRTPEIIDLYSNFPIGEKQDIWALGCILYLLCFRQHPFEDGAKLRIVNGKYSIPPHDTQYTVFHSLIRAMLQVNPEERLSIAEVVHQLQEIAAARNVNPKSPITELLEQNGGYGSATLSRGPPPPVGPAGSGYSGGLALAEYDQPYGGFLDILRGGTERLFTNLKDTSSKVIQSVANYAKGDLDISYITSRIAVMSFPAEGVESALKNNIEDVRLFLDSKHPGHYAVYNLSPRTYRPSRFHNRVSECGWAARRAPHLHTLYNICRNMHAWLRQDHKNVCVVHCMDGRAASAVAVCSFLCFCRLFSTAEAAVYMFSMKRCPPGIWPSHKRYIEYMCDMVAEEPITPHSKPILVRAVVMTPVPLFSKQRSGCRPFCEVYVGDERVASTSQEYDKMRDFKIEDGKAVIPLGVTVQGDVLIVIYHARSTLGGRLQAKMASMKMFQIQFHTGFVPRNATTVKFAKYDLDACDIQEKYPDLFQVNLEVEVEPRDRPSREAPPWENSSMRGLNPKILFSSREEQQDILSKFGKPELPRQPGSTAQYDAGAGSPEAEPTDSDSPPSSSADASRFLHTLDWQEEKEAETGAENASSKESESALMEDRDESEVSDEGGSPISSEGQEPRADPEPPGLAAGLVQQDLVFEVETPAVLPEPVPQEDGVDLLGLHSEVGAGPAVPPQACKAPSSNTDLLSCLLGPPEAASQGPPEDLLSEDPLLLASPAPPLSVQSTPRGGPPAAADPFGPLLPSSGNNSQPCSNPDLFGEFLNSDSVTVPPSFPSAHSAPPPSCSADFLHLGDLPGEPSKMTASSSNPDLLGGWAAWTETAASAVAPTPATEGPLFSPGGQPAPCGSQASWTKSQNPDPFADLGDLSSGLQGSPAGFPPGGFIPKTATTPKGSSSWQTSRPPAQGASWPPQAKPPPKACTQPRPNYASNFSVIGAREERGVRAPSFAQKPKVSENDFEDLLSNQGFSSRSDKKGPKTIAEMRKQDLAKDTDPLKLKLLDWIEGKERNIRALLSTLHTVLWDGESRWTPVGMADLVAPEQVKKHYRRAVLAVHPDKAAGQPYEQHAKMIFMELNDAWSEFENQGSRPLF
Source text: as §1

panel of 203 kinases [5] = molecular target: T5, panel of 203 kinases (Homo sapiens, UniProt Q13043); conditions: 10 µM, n=1; kinase MST1; read-out: Percent inhibition MST1
T5 construct: purchased DiscoverX (KINOMEscan)
T5 sequence (Q13043 1-487): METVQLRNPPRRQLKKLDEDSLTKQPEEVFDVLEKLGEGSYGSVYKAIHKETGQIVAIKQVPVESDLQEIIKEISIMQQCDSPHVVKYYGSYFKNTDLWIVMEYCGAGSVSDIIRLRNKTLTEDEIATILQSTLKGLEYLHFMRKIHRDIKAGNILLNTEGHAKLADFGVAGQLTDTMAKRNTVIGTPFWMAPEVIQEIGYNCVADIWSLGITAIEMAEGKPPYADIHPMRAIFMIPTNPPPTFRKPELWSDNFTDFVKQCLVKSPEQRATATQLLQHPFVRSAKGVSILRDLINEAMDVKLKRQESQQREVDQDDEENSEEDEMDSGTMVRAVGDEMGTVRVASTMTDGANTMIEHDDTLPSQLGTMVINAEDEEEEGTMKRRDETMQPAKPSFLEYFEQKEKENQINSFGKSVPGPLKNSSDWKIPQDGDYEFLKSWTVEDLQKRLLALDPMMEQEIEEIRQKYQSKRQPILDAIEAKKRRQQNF
Source text: as §1

panel of 203 kinases [6] = molecular target: T6, panel of 203 kinases (Homo sapiens, UniProt P11362); conditions: 10 µM, n=1; kinase FGFR1; read-out: Percent inhibition FGFR1
T6 construct: purchased DiscoverX (KINOMEscan)
Source text: as §1

panel of 203 kinases [7] = molecular target: T7, panel of 203 kinases (Homo sapiens, UniProt P16591); conditions: 10 µM, n=1; kinase FER; read-out: Percent inhibition FER
T7 construct: purchased DiscoverX (KINOMEscan)
Source text: as §1

panel of 203 kinases [8] = molecular target: T8, panel of 203 kinases (Homo sapiens, UniProt P06213); conditions: 10 µM, n=1; kinase INSR; read-out: Percent inhibition INSR
T8 construct: purchased DiscoverX (KINOMEscan)
Source text: as §1

panel of 203 kinases [9] = molecular target: T9, panel of 203 kinases (Homo sapiens, UniProt P27037); conditions: 10 µM, n=1; kinase ACVR2A; read-out: Percent inhibition ACVR2A
T9 construct: purchased DiscoverX (KINOMEscan)
Source text: as §1

panel of 203 kinases [10] = molecular target: T10, panel of 203 kinases (Homo sapiens, UniProt P35916); conditions: 10 µM, n=1; kinase FLT4; read-out: Percent inhibition FLT4
T10 construct: purchased DiscoverX (KINOMEscan)
Source text: as §1

T6 sequence (P11362 22-822): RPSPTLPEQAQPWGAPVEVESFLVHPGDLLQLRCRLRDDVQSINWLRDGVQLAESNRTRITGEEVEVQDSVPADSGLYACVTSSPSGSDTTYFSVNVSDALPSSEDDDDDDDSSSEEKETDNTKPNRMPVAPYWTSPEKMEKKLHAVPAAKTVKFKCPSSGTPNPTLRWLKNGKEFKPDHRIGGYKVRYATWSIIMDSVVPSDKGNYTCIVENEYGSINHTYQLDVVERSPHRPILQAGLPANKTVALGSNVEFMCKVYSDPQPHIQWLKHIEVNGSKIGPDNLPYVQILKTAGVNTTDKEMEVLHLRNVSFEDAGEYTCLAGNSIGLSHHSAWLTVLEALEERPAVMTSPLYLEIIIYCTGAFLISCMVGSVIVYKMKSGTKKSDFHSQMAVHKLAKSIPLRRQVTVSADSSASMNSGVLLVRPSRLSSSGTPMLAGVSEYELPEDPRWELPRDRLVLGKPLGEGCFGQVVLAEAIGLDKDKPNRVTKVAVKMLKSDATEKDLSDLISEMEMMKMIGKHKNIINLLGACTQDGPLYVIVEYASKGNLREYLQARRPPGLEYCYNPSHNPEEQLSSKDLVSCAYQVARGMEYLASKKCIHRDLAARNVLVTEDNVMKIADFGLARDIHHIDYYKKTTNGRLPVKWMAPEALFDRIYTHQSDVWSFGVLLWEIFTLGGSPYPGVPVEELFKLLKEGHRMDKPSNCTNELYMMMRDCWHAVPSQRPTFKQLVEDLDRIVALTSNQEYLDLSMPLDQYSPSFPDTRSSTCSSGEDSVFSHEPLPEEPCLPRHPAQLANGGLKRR
T9 sequence (P27037 20-513): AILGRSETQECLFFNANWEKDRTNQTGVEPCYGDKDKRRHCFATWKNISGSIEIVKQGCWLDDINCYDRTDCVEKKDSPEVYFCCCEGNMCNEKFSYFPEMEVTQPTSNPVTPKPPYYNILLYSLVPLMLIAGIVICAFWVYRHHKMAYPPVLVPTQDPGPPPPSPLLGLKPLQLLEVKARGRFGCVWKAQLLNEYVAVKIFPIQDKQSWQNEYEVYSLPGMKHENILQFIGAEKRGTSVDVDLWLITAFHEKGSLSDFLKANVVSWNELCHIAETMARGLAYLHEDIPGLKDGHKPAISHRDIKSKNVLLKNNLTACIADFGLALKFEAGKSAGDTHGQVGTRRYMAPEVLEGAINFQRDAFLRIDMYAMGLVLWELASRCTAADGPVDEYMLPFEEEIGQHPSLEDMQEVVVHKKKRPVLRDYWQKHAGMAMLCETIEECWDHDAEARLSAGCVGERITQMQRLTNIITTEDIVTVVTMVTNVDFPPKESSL
T10 sequence (P35916 25-1363): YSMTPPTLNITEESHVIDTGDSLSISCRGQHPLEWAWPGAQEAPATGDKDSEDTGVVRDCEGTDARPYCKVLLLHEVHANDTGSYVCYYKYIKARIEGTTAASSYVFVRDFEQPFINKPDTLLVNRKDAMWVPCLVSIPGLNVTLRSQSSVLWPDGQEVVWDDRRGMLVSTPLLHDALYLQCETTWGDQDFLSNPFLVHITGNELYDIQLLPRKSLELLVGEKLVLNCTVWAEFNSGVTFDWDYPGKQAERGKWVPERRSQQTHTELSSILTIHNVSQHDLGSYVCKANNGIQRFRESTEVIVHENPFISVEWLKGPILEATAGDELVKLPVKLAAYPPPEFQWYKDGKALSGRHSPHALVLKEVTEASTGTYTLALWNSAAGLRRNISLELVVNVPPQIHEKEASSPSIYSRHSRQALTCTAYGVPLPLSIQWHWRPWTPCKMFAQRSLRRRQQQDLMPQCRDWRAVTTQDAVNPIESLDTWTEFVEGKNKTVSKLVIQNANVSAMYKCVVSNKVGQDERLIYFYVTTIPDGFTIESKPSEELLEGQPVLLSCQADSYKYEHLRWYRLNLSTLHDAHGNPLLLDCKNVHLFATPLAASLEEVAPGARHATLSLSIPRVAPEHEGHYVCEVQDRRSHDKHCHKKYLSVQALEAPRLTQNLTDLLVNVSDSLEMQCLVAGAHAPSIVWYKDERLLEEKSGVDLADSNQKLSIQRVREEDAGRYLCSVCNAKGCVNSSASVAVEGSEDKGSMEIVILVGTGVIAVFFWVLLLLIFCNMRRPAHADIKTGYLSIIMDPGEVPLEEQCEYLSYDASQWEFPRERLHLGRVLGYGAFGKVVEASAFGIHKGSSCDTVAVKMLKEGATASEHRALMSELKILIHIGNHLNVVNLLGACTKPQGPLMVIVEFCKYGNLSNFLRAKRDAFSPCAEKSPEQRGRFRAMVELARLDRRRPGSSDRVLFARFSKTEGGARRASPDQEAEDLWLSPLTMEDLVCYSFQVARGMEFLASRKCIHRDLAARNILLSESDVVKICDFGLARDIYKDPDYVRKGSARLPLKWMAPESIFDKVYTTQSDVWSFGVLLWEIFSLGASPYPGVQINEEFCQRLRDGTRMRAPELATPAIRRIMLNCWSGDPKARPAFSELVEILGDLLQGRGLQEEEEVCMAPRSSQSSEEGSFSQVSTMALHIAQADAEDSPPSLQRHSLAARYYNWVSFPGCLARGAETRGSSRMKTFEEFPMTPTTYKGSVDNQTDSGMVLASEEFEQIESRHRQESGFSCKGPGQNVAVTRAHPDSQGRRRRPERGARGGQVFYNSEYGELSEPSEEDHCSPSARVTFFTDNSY
T8 sequence (P06213 28-1382): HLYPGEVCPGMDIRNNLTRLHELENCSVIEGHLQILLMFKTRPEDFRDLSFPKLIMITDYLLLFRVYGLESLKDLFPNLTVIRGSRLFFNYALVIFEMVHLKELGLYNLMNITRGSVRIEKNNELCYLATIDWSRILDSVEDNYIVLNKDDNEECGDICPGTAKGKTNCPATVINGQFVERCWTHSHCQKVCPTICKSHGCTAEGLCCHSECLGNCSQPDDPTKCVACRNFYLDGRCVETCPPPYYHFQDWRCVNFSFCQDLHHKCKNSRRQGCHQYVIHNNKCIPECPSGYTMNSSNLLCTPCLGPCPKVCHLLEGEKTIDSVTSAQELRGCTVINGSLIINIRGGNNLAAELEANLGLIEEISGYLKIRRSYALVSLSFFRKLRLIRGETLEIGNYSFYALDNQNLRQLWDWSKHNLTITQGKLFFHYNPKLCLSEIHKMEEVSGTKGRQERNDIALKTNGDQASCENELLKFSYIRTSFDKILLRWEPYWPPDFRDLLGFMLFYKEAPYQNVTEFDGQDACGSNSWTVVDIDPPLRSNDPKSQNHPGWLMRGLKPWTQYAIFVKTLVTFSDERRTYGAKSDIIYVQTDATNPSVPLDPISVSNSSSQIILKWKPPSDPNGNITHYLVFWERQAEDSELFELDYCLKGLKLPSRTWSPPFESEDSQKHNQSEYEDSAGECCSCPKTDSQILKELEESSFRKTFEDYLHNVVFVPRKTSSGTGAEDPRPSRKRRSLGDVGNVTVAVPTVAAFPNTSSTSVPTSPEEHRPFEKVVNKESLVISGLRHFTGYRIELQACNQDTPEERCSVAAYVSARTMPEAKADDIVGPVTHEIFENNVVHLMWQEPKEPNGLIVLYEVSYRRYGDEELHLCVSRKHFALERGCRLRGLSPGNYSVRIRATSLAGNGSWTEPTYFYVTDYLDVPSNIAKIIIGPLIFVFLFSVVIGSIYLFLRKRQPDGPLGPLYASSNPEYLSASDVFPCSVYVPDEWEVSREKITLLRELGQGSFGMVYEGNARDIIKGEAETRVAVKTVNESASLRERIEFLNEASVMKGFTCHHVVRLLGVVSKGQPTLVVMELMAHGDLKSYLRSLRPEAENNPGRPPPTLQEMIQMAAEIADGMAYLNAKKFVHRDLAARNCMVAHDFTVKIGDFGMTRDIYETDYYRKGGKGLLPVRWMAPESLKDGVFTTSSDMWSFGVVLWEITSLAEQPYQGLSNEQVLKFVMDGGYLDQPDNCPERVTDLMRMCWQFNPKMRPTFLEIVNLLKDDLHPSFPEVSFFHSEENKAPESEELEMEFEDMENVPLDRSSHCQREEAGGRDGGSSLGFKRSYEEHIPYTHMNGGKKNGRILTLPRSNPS
T3 sequence (Q14012 whole entry): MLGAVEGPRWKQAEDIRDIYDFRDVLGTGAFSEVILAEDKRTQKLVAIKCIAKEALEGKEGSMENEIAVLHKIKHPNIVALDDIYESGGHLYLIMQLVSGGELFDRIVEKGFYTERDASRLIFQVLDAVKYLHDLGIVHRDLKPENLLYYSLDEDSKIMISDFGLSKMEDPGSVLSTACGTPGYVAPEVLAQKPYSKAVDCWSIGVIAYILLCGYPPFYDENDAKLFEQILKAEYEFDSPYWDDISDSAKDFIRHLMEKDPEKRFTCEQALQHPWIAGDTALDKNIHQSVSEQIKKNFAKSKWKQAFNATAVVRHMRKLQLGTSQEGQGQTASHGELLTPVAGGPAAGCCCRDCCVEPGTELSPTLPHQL
T2 sequence (P31749 whole entry): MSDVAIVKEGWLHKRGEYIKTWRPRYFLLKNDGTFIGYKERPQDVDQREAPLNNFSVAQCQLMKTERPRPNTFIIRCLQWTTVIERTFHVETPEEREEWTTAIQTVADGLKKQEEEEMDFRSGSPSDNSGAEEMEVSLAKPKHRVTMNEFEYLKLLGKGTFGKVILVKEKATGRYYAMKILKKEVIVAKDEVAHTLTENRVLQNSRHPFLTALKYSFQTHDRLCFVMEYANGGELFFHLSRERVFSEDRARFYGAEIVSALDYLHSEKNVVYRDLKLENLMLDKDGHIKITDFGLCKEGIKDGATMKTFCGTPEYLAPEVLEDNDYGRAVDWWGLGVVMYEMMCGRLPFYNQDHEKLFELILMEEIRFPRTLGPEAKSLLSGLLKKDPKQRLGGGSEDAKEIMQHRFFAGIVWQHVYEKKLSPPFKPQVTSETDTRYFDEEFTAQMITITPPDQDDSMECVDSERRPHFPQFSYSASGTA

Compound	inhibition at 10 µM (panel of 203 kinases [1])	inhibition at 10 µM (panel of 203 kinases [2])	inhibition at 10 µM (panel of 203 kinases [3])	inhibition at 10 µM (panel of 203 kinases [4])	inhibition at 10 µM (panel of 203 kinases [5])	inhibition at 10 µM (panel of 203 kinases [6])	inhibition at 10 µM (panel of 203 kinases [7])	inhibition at 10 µM (panel of 203 kinases [8])	inhibition at 10 µM (panel of 203 kinases [9])	inhibition at 10 µM (panel of 203 kinases [10])
CN1CCN(c2ccc(Nc3nccc(-c4cnn5ncccc45)n3)cc2C#N)CC1 [Compound 1]	0%	0%	92.3%	97.9%	99.3%	74.1%	0%	94.3%	0%	71.9%
COc1ccc(Nc2nccc(-c3cnn4ncccc34)n2)cc1 [Compound 2]	80.8%	0%	0%	99.9%	0%	0%	74.7%	76.9%	0%	70.1%
Cc1ccc(O)cc1Nc1ccnc(Nc2cccc(C(N)=O)c2)n1 [Compound 3]	0%	0%	0%	99.8%	0%	0%	95%	0%	99.3%	99.2%
Cc1ccc(O)cc1N(C)c1ccnc(Nc2cccc(S(N)(=O)=O)c2)n1 [Compound 4]	69.7%	0%	0%	99.6%	0%	0%	99.6%	0%	99.7%	99.7%
Fc1cccc(COc2ccc(Nc3ncnc4c3CN(CCN3CCOCC3)CC4)cc2Cl)c1 [Compound 6]	0%	0%	0%	0%	0%	0%	0%	0%	0%	0%
COc1cc(Nc2nccc(-c3sc(N)nc3-c3cccc(NC(=O)c4c(F)cccc4F)c3)n2)cc(OC)c1OC [Compound 7]	0%	0%	91.5%	100%	97.4%	99.7%	99%	97.3%	0%	100%
C[C@@H](Oc1cc(-c2cnc3ccccn23)sc1C(N)=O)c1ccccc1Cl [Compound 8]	0%	0%	0%	97.2%	0%	0%	0%	0%	0%	84%
c1ccc(COc2cccc(-c3ccnc4[nH]ccc34)c2)cc1 [Compound 9]	0%	0%	0%	0%	0%	0%	0%	0%	0%	0%
Clc1ccc(Nc2ncc(-c3ccccc3)s2)cc1 [Compound 10]	0%	0%	0%	0%	0%	0%	0%	0%	0%	0%
Nc1ncc2c(-c3ccncc3)c[nH]c2n1 [Compound 11]	0%	0%	0%	97.2%	0%	0%	0%	0%	0%	0%
